{"source": "patent US7981914B2", "about": "“Tetrazole-substituted aryl amide derivatives and uses thereof” (Roche Palo Alto LLC, priority 2007, dated 2011)", "target": "T1, human nicotinic alpha7 WT receptor (Homo sapiens, UniProt P36544)", "T1 construct": "expressed in transfected cells; host or cells: GH4C1 (rat pituitary-derived cell line), RPA clone #34.7", "T1 sequence (P36544 23-502)": "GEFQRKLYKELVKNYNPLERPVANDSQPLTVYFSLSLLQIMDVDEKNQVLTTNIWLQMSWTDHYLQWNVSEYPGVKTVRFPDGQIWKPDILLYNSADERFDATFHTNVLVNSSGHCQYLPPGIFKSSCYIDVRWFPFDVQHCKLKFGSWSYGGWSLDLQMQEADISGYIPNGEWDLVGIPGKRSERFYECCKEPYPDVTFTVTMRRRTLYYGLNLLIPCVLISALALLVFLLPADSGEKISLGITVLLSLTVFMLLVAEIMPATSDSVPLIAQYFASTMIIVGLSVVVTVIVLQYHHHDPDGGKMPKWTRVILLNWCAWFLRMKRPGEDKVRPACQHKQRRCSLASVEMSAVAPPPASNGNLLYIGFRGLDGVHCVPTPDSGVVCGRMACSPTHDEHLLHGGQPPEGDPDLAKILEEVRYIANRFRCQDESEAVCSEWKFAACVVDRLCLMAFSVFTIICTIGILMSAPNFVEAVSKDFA", "assay": "Nicotinic alpha 7 Modulation Assay (FLIPR)", "type": "cell-based", "conditions": "GH4C1 cells stably expressing human nicotinic alpha7 WT receptor, ACh 30 μM, positive control 1 μM PNU-120596", "description": "Nicotinic alpha 7 Modulation Assay\nCell Culture Growth Media: F10 medium (Invitrogen), 2.5% Fetal Bovine Serum (FBS, Summit Biotechnology); 15% heat inactivated donor Horse Serum (Invitrogen), 250 μg/ml Hygromycin B (Invitrogen); and 100 nM Methyllicaconite (MLA, Sigma) are added to each new culture by 50-fold dilution of stock solution prepared in H2O at 5 μM.\nGH4C1 cells (rat pituitary-derived cell line) stably expressing human nicotinic alpha7 WT receptor (RPA clone #34.7) are cultivated in cell culture growth media (described above) at 37 C in a humidified atmosphere containing 4% CO2. […]\nThe alpha 7 nAChR assay is a cell-based functional readout designed to determine the effect of test compounds to either directly activate nicotinic receptor channels and/or to modulate activation by the native agonist acetylcholine (ACh, Sigma). […]\nAssay of test compound effect on activation of the alpha7 nicotinic receptor channel is done by measurement of cytosolic [Ca^2+] elevation as reported by increased FLUO-3 fluorescence using a two addition experimental design and FLIPR™ (Molecular Devices). Following a 30 second baseline recording, test compounds are added online (dilution scheme below) and cell response is recorded for an additional 5 minutes. After a second addition of ACh (30 μM, FAC), plates are read for an additional 4 minutes. […]", "data": [{"smiles": "COc1ccccc1-c1cc(C(=O)NCCc2ccc(S(N)(=O)=O)cc2)cc(-n2cnnn2)c1", "note": "[Compound 4, 2′-Methoxy-5-tetrazol-1-yl-biphenyl-3-carboxylic acid [2-(4-sulfamoyl-phenyl)-ethyl]-amide]", "values": [{"measurement": "positive allosteric modulation", "value": 467.65}]}]}
